Assay results as given in US20250163057A1, “DCN-1 MODULATING COMPOUNDS AND METHODS OF USE THEREOF” (Cellarity, Inc., priority 2023, published 2025).

Columns and labels:
[1] = target: DCN1 (DCUND1) protein PONY domain (Homo sapiens (Human), UniProt Q96GG9); assay: Off-rate measurement of reversible covalent molecules (jump dilution TR-FRET with Cy5 probe); format: binding; details: for Category: binding mode category from off-rate assay; for residence time: inverse of rate constant K; for residence time / half-life: jump dilution TR-FRET; for koff: jump dilution, Cy5 covalent probe 150 nM, TR-FRET; for half-life: ln(2)/K
Chain of DCN1 (DCUND1) protein PONY domain (Q96GG9 60-248): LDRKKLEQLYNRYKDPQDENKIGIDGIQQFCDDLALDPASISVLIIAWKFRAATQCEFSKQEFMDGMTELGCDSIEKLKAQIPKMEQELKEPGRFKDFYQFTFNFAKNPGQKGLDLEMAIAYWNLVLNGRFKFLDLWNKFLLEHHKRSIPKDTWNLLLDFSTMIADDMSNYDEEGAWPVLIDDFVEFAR

[2] = target: DCN2 (DCUND2) protein PONY domain (Homo sapiens (Human), UniProt Q6PH85); assay: Measurement of Kinact/KI in the DCN2 TR-FRET Assay; format: binding; details: for kinact/KI: read-out: Kinact/KI (converted); for Ki / kinact: time-dependent IC50 over 24 hrs; for kinact: read-out: Kinact (converted)
Chain of DCN2 (DCUND2) protein PONY domain (Q6PH85 60-248): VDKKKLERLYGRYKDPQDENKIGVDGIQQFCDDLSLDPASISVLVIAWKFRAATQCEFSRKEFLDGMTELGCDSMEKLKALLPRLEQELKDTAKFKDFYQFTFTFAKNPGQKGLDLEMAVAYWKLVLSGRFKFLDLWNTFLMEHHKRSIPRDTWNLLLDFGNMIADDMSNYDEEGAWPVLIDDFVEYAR
Procedure: A TR-FRET Assay was performed to evaluate the ability of the compounds to bind DCN-2.
The time resolved—Forster's resonance energy transfer (TR-FRET) assay was designed following the protocol established in (Scott et al., Nat Chem Biol. 2017 August; 13(8): 850-857). A recombinant form of the DCN2 (DCUND2) protein PONY domain was produced using an E. coli expression system at Viva Biotech China. The DCN2 protein was biotinylated (EZ sulfo-NHS-LC-biotin; Thermofisher) for labeling with 2.5 nM streptavidin terbium (Tb) cryptate in the reaction. The probe was changed to a non-covalent DCN1 inhibitor labeled with carboxyfluorescein (FAM; Zhou et al, Nat Commun. 2017; 8: 1150). Buffer conditions were modified to enhance protein stability by replacing TritonX with 0.05% Tween20 and increasing NaCl to 200 mM. The compounds were screened against 0.31 nM DCN1 and 40 nM FAM-labeled probe in a 40 ul reaction volume. The TR-FRET ratio between Tb-DCN1 and the FAM-labeled probe was measured in a 384-well opti-plate (Perkin Elmer) using a plate reader (BMG) at after treatment with compound (final DMSO concentration of 0.1%). The ratio was normalized to the high (DCN1 and FAM-probe) and low (DCN1 and no probe) controls for a readout of % activity (=100*(x−low)/(high−low)).
The Kinact and KI measurements were taken to allow for continuous reads over 24 hrs. Plates were read every 5 min up to 1 hr, every 15 min up to 5 hr, and every hour up to […]. Kinact and KI were calculated based on the following equations (Krippendorff B F, et al. Mechanism-based inhibition: deriving K(I) and k(inact) directly from time-dependent IC(50) values. J BiomolScreen. 2009; Mons E et al. A Comprehensive Guide for Assessing Covalent Inhibition in Enzymatic Assays Illustrated with Kinetic Simulations. CurrProtoc. 2022) where the KM of the probe against DCN2 is 21.62 nM. The Kinact and KI values could be estimated from the tight curves of the IC50 values over time.

SMILES	Category [1]	residence time [1] [min]	koff [1] [s⁻¹]	half-life [1] [h]	kinact/KI [2] [M⁻¹ s⁻¹]	Ki [2] [nM]	kinact [2] [s⁻¹]
CCN1C(=O)[C@@H](NC(=O)c2cccc(C(F)(F)F)c2)[C@@H](c2ccc(F)cc2)c2c(C(=O)N(C)[C@H](C#N)CCN(C)C)nn(C3CCOCC3)c21 [Compound I-370]	fast reversible	78.6	0.000212	0.908	107000	0.488	5.17e-05
CCN1C(=O)[C@@H](NC(=O)c2cccc(C(F)(F)F)c2)[C@@H](C2CC2)c2c(C(=O)N3C[C@H](OC)C[C@H]3C#N)nn(C3CCOCC3)c21 [Compound I-377]					21700	161	0.00354
CCN1C(=O)[C@@H](NC(=O)c2cccc(C(F)(F)F)c2)[C@@H](C2CC2)c2c(C(=O)N3CS(=O)(=O)C[C@H]3C#N)nn(C3CCOCC3)c21 [Compound I-617]	fast reversible	66.3	0.000251	0.7658			
CCc1cccc(C(=O)N[C@@H]2C(=O)N(CC)c3c(c(C(=O)N4[C@H](C#N)C[C@H]5C[C@H]54)nn3C3CCOCC3)[C@@H]2C2CC2)c1 [Compound I-552, N-((4S,5S)-3-((1R,3S,5R)-3-cyano-2-azabicyclo[3.1.0]hexane-2-carbonyl)-4-cyclopropyl-7-ethyl-6-oxo-1-(tetrahydro-2H-pyran-4-yl)-4,5,6,7-tetrahydro-1H-pyrazolo[3,4-b]pyridin-5-yl)-3-ethylbenzamide]	reversible covalent	224	7.5e-05	2.593	333000	17	0.00566
CCN1C(=O)[C@@H](NC(=O)c2cccc(C(F)(F)F)c2)[C@@H](C2CC2)c2c(C(=O)N3CCNC[C@H]3C#N)nn(-c3ccccc3)c21 [Compound I-383]	irreversible covalent				48300	95.8	0.00465
CCN1C(=O)[C@@H](NC(=O)c2cccc(C(F)(F)F)c2)[C@@H](C)c2c(C(=O)N3[C@H](C#N)C[C@H]4C[C@H]43)nn(C3CCOCC3)c21 [Compound I-387]	reversible covalent	144	0.000116	1.67	46700	157	0.00727
CCN1C(=O)[C@@H](NC(=O)c2cccc(C(F)(F)F)c2)[C@@H](C2CC2)c2c(C(=O)N3C[C@H](F)C[C@H]3C#N)nn(C3CCOCC3)c21 [Compound I-372]					13300	229	0.00313
CCN1C(=O)[C@@H](NC(=O)c2cccc(C(F)(F)F)c2)[C@@H](C2CC2)c2c(C(=O)N3CCS(=O)(=O)C[C@H]3C#N)nn(C3CCOCC3)c21 (mixture of isomers) [Compound I-379]	reversible covalent	78.9	0.000211	0.9115			
CCN1C(=O)[C@@H](NC(=O)c2cccc(C(F)(F)F)c2)[C@@H](c2ccc(F)cc2)c2c(C(=O)N3CCC[C@H]3C#N)nn(C3CCOCC3)c21 [Compound I-350]	slow reversible	699	2.64e-05	8.07	45000	92.9	0.00417
CCN1C(=O)[C@@H](NC(=O)c2cccc(C(F)(F)F)c2)[C@@H](C2CC2)c2c(C(=O)N3CCNC[C@H]3C#N)nn(C3CCOCC3)c21 [Compound I-582]	irreversible covalent						
CCN1C(=O)[C@@H](NC(=O)c2cccc(C(F)(F)F)c2)[C@@H](c2ccc(F)cc2)c2c(C(=O)N3CCNC[C@H]3C#N)nn(C3CCOCC3)c21 [Compound I-363, N-((4S,5S)-3-((S)-2-cyanopiperazine-1-carbonyl)-7-ethyl-4-(4-fluorophenyl)-6-oxo-1-(tetrahydro-2H-pyran-4-yl)-4,5,6,7-tetrahydro-1H-pyrazolo[3,4-b]pyridin-5-yl)-3-(trifluoromethyl)benzamide]	slow reversible				263000	17.4	0.00459
CCN1C(=O)[C@@H](NC(=O)c2cccc(C(F)(F)F)c2)[C@@H](c2ccc(F)cc2)c2c([C@@H](C)NC#N)nn(-c3ccccc3)c21 [Compound I-73, N-((4S,5S)-3-((R)-1-cyanamidoethyl)-7-ethyl-4-(4-fluorophenyl)-6-oxo-1-phenyl-4,5,6,7-tetrahydro-1H-pyrazolo[3,4-b]pyridin-5-yl)-3-(trifluoromethyl)benzamide]	irreversible covalent				83300	46.4	0.00384
CCN1C(=O)[C@@H](NC(=O)c2cccc(C(F)(F)F)c2)[C@@H](C2CC2)c2c(C(=O)N3[C@H](C#N)C[C@H]4C[C@H]43)nn(C3CCOCC3)c21 [Compound I-256, N-((4S,5S)-3-((1R,3S,5R)-3-cyano-2-azabicyclo[3.1.0]hexane-2-carbonyl)-4-cyclopropyl-7-ethyl-6-oxo-1-(tetrahydro-2H-pyran-4-yl)-4,5,6,7-tetrahydro-1H-pyrazolo[3,4-b]pyridin-5-yl)-3-(trifluoromethyl)benzamide]	slow reversible	219	7.96e-05	2.535	78300	99.4	0.00783
CCN1C(=O)[C@@H](NC(=O)c2cccc(C(F)(F)F)c2)[C@@H](c2ccc(F)cc2)c2c(C(=O)N(C)[C@@H](C#N)CCN(C)C)nn(C3CCOCC3)c21 [Compound I-369]	fast reversible	39.4	0.000425	0.455	11700	2	2.17e-05
